The test system of assay [1] is MRSA. The assay can be described thus: Potentiation screening assay: methicillin MIC reduction in MRSA. It counts as cell-based, Staphylococcus aureus. Conditions: 0, 5, and 10 μg/ml test compound. Here is the method:
After regrowth at 35° C. to an OD600 of 0.2-0.4 (1-2 hrs.), the cells are diluted 1/1000 in MHB. […] The plate is placed in a humidified 35° C. incubator for 5-24 hours, and cell growth or inhibition is read as turbidity (OD600). Two positive and one negative controls for growth are cells grown MHB, cells grown in MHB plus 20 μg/ml methicillin alone (without test compound), and uninoculated MHB respectively.
Compounds which meet the first two criteria for follow-up are evaluated in a standard microdilution assessment of the MIC with methicillin for MRSA. (see Lorian, Antibiotics in Laboratory Medicine, 3rd ed., pp. 72-75 (1991).) In order to be carried further, the MIC of methicillin preferably is reduced in the presence of the potentiator to at most twice the MIC of a susceptible strain for methicillin.
MICs for the compounds were determined in the presence of 0, 5, and 10 μg/ml of each compound. MRSA cells were grown in the presence of 0, 5, and 10 μg/ml test compound and concentrations of methicillin obtained from serial two-fold dilutions starting at 1024 μg/ml to 0.002 μg/ml (This range can be extended or refined as appropriate.) as follows: A fresh inoculum of MRSA cells was grown at 35° C. in Mueller-Hinton Broth (MHB) overnight and then diluted 1/50 in the same medium. After regrowth at 35° C. to an OD600 of 0.2-0.4 (1-2 hrs.), the cells were diluted 1/1000 in MHB. […] The plate was placed in a humidified 35° C. incubator for 24 hours, and cell growth or inhibition was read as turbidity (OD600).

The test system of assay [2] is MRSA. The assay can be described thus: Specificity: intrinsic antibacterial activity without antibacterial agent. The assay is classed as cell-based, Staphylococcus aureus. Conditions: test compound alone, without methicillin. Here is the method: In order to ascertain that the test compound is not primarily responsible for inhibition of growth, MRSA cells are grown in the presence of 5 μg/ml test compound as follows: A fresh inoculum of MRSA cells is grown at 35° C. in Mueller-Hinton Broth (MHB) overnight and then diluted 1/50 in the same medium. After regrowth at 35° C. to an OD600 of 0.2-0.4 (1-2 hrs.), the cells are diluted 1/1000 in MHB. In a microtiter plate, 50 μl of this diluted culture is combined with 50 μl MHB containing 10 μg/ml test compound to give starting growth conditions of 5×10^5 cfu/ml in MHB, with 5 μg/ml test compound. The plate is placed in a humidified 35° C. incubator for 5-24 hours, and cell growth or inhibition is read as turbidity (OD600). To be carried forward to the next step of the potentiator screening assay, the test compound should have little or no intrinsic anti-staphylococcal activity (growth should be at least 75% of the growth of the positive control without methicillin, corrected for background), or that activity should be explicable without indicating the probability of human toxicity.

As for `COc1ccc2c(c1)CCCC2=O` [6-methoxy-1-tetralone], the “effect on the MIC for methicillin” value in assay [1] is listed as “little or no effect on the MIC for methicillin”.

Turning to `C=C1CC[C@@H]2[C@](C)(CO)[C@H](O)CC[C@@]2(C)[C@@H]1C/C=C1/C(=O)OC[C@H]1O` [andrographolide], the “effect on the MIC for methicillin” value in assay [1] is on record as “little or no effect on the MIC for methicillin”.

As for `COc1ccc2c(c1)CCCC2` [6-methoxy-1,2,3,4-tetrahydronaphthalene], the “effect on the MIC for methicillin” value in assay [1] is reported as “little or no effect on the MIC for methicillin”.

In the case of `COC(=O)C1(C)CCCC2(C)c3cc(OC)ccc3CCC12` (stereo not drawn) [methyl o-methyl-podocarpate], the “effect on the MIC for methicillin” value in assay [1] is “little or no effect on the MIC for methicillin”.

Take `C[C@@]12CCC[C@H]1[C@@H]1CC[C@@H]3C[C@H](O)CC[C@]3(C)[C@H]1CC2` [5β-androstan-3-α-ol]: in assay [2], the intrinsic antimicrobial activity result is listed as “not exhibiting intrinsic antimicrobial activity”. Moreover, the “effect on the MIC for methicillin” value in assay [1] is on record as “reduce the MIC for methicillin”.

Regarding `C[C@H]1[C@H](C)CC[C@]2(CO)CC[C@]3(C)C(=CC[C@@H]4[C@@]5(C)CC[C@H](O)C(C)(C)[C@@H]5CC[C@]43C)[C@H]12` [uvaol], the intrinsic antimicrobial activity entry in assay [2] was “not exhibiting intrinsic antimicrobial activity”. Further, the “effect on the MIC for methicillin” value in assay [1] is reported as “reduce the MIC for methicillin”.

`CC1(C)CCCC2(C)C1CCC1(C)OC(=O)CC12` (single isomer, unassigned) [(3aR) -(+) -sclareolide]: the “effect on the MIC for methicillin” value in assay [1] was “little or no effect on the MIC for methicillin”.

For the compound `COc1cc2c(cc1OC)C(=O)CCC2` [6,7-dimethoxy-1-tetralone], the “effect on the MIC for methicillin” value in assay [1] is reported as “little or no effect on the MIC for methicillin”.

For `C=C1CC[C@H](O)C/C1=C/C=C1\CCC[C@]2(C)[C@@H]([C@H](C)/C=C/[C@H](C)C(C)C)CC[C@@H]12` [ergocalciferol], the “effect on the MIC for methicillin” value in assay [1] is listed as “little or no effect on the MIC for methicillin”.

Regarding `C[C@]12CC[C@@H]3c4ccc(O)cc4CC[C@H]3[C@@H]1CC[C@@H]2O` [β-estradiol], in assay [1], the “effect on the MIC for methicillin” value is “little or no effect on the MIC for methicillin”.

For `C[C@]12CC[C@H](O)C[C@@H]1CC[C@@H]1[C@@H]2CC[C@]2(C)C(=O)CC[C@@H]12` [epiandrosterone], the “effect on the MIC for methicillin” value in assay [1] is “little or no effect on the MIC for methicillin”.

Consider `C[C@]12CC[C@@H]3c4ccc(O)cc4CC[C@H]3[C@@H]1CC[C@H]2O` [α-estradiol], for which the “effect on the MIC for methicillin” value in assay [1] is “little or no effect on the MIC for methicillin”.

Take `C[C@@]12CCC[C@H]1[C@@H]1CC[C@H]3C[C@@H](O)CC[C@]3(C)[C@H]1CC2` [5-α-androstan-3β-ol]: in assay [2], the intrinsic antimicrobial activity result is reported as “not exhibiting intrinsic antimicrobial activity”. For the same compound, the “effect on the MIC for methicillin” value in assay [1] is reported as “reduce the MIC for methicillin”.

Take “10a, 12a dimethyl 1-8-hydroxy-tetradecahydrochrysene”: the intrinsic antimicrobial activity entry in assay [2] is “not exhibiting intrinsic antimicrobial activity”. Also, in assay [1], the “effect on the MIC for methicillin” value is recorded as “reduce the MIC for methicillin”.

As to `C[C@@]12CCC[C@H]1[C@@H]1CC[C@@H]3C[C@@H](O)CC[C@]3(C)[C@H]1CC2` [5β-androstan-3β-ol], the intrinsic antimicrobial activity result in assay [2] is on record as “not exhibiting intrinsic antimicrobial activity”. Besides, the “effect on the MIC for methicillin” value in assay [1] is “reduce the MIC for methicillin”.

Consider “4a, 5-epoxy-3-oxo-14H-4,6a,9,9-4mephenanthro (2,3-D)(1,3)dioxole-4-propionic acid”, for which the “effect on the MIC for methicillin” value in assay [1] is reported as “little or no effect on the MIC for methicillin”.

As to `COc1ccc2c(c1)[C@]13CCCC[C@@H]1[C@H](C2)N(C)CC3` [dextromethorphan], in assay [1], the “effect on the MIC for methicillin” value is recorded as “little or no effect on the MIC for methicillin”.

For the compound `COc1ccc2c(c1)CC[C@@H]1[C@@H]2CC[C@]2(C)[C@@H](O)CC[C@@H]12` [β-estradiol-3-methyl ether], the intrinsic antimicrobial activity entry in assay [2] is recorded as “not exhibiting intrinsic antimicrobial activity”. Also, the “effect on the MIC for methicillin” value in assay [1] is on record as “reduce the MIC for methicillin”.

These data come from US5883074A, “Potentiators of antibacterial agents” (priority 1995, dated 1999).
